Measurements from patent US9776981B2, “Hepatitis C virus inhibitors” (BRISTOL-MYERS SQUIBB COMPANY, priority 2009, dated 2017).
Where two headings read alike, the source gives them in different places.

Test system: HCV 1b genotype (HCV-neo replicon cells)
Assay: HCV Replicon assay (HCV 1b genotype)
Format: cell-based
Settings: Hepatitis C virus, HCV 1b genotype replicon
Experimental: An HCV Replicon assay was utilized in the present disclosure, and was prepared, conducted and validated as described in commonly owned PCT/US2006/022197 and in O'Boyle et al., Antimicrob. Agents Chemother., 49(4):1346-1353 (April 2005). Assay methods incorporating luciferase reporters have also been used as described (Apath.com).
HCV-neo replicon cells and replicon cells containing resistance substitutions in the NS5A region were used to test the currently described family of compounds. The compounds were determined to have differing degrees of reduced inhibitory activity on cells containing mutations vs. the corresponding inhibitory potency against wild-type cells. Thus, the compounds of the present disclosure can be effective in inhibiting the function of the HCV NS5A protein and are understood to be as effective in combinations as previously described in application PCT/US2006/022197 and commonly owned WO 04/014852. It should be understood that the compounds of the present disclosure can inhibit multiple genotypes of HCV. […] In one embodiment, compounds of the present disclosure are inhibitory versus 1a, 1b, 2a, 2b, 3a, 4a, and 5a genotypes.

[1] = class symbol, read-out: Range (EC50 against HCV 1b)

| SMILES | EC50 [1] | EC50 (read-out: EC50) |
| --- | --- | --- |
| COC(=O)N[C@H](C(=O)N1C[C@@H](C)C[C@H]1c1ncc(-c2ccc(-c3ccc4cc(-c5[nH]c([C@@H]6C[C@H](C)CN6C(=O)[C@@H](NC(=O)OC)C6CCOCC6)nc5Cl)ccc4c3)cc2)[nH]1)C1CCOCC1 [Example 144, Methyl ((1S)-2-((2S,4S)-2-(4-(4-(6-(4-chloro-2-((2S,4S)-1-((2S)-2-((methoxycarbonyl)amino)-2-(tetrahydro-2H-pyran-4-yl)acetyl)-4-methyl-2-pyrrolidinyl)-1H-imidazol-5-yl)-2-naphthyl)phenyl)-1H-imidazol-2-yl)-4-methyl-1-pyrrolidinyl)-2-oxo-1-(tetrahydro-2H-pyran-4-yl)ethyl)carbamate] | 0.0101 to 1 nM | 0.0177 nM |
| COC(=O)N[C@H](C(=O)N1[C@@H]2C[C@@H]2C[C@H]1c1ncc(-c2cnc3cc(-c4ccc5nc([C@@H]6C[C@H]7C[C@H]7N6C(=O)[C@@H](NC(=O)OC)C6CCOCC6)[nH]c5c4)ccc3n2)[nH]1)C1CCOCC1 [Example 58, Methyl ((1S)-2-((1R,3S,5R)-3-(4-(6-(2-((1R,3S,5R)-2-((2S)-2-((methoxycarbonyl)amino)-2-(tetrahydro-2H-pyran-4-yl)acetyl)-2-azabicyclo[3.1.0]hex-3-yl)-1H-benzimidazol-5-yl)-2-quinoxalinyl)-1H-imidazol-2-yl)-2-azabicyclo[3.1.0]hex-2-yl)-2-oxo-1-(tetrahydro-2H-pyran-4-yl)ethyl)carbamate] | 0.0101 to 1 nM | 0.849 nM |
| COC(=O)N[C@H](C(=O)N1CCC[C@H]1c1nc2ccc(-c3ccc4cc(-c5ccc6nc([C@@H]7CCCN7C(=O)[C@@H](NC(=O)OC)C7CC7)[nH]c6c5)ccc4c3)cc2[nH]1)C1CC1 [Example 11, Dimethyl (2,6-naphthalenediylbis(1H-benzimidazole-5,2-diyl(2S)-2,1-pyrrolidinediyl((1S)-1-cyclopropyl-2-oxo-2,1-ethanediyl)))biscarbamate] | 0.0101 to 1 nM | 0.0182 nM |
| COC(=O)N[C@H](C(=O)N1C[C@@H](C)C[C@H]1c1ncc(-c2ccc(-c3ccc4cc(-c5[nH]c([C@@H]6C[C@H](C)CN6C(=O)[C@@H](NC(=O)OC)C(C)C)nc5Cl)ccc4c3)cc2)[nH]1)C(C)C [Example 143, Methyl ((1S)-1-(((2S,4S)-2-(4-(4-(6-(4-chloro-2-((2S,4S)-1-((2S)-2-((methoxycarbonyl)amino)-3-methylbutanoyl)-4-methyl-2-pyrrolidinyl)-1H-imidazol-5-yl)-2-naphthyl)phenyl)-1H-imidazol-2-yl)-4-methyl-1-pyrrolidinyl)carbonyl)-2-methylpropyl)carbamate] | – | 0.00105 nM |
| CC(C)CC(=O)N[C@H](c1nc(-c2ccc(-c3ccc4cc(-c5c[nH]c([C@@H](NC(=O)CC(C)C)C(C)(C)C)n5)ccc4c3)cc2)c[nH]1)C(C)(C)C [Example 150, N-((1S)-1-(4-(4-(6-(2-((1S)-2,2-dimethyl-1-((3-methylbutanoyl)amino)propyl)-1H-imidazol-4-yl)-2-naphthyl)phenyl)-1H-imidazol-2-yl)-2,2-dimethylpropyl)-3-methylbutanamide] | 1.01 to 1000 nM | – |
| COC(=O)N[C@H](C(=O)N1[C@@H]2C[C@@H]2C[C@H]1c1ncc(-c2ccc3nc(-c4ccc5nc([C@@H]6C[C@H]7C[C@H]7N6C(=O)[C@@H](NC(=O)OC)C6CCOCC6)[nH]c5c4)cnc3c2)[nH]1)C1CCOCC1 [Example 53, Methyl ((1S)-2-((1R,3S,5R)-3-(4-(2-(2-((1R,3S,5R)-2-((2S)-2-((methoxycarbonyl)amino)-2-(tetrahydro-2H-pyran-4-yl)acetyl)-2-azabicyclo[3.1.0]hex-3-yl)-1H-benzimidazol-5-yl)-6-quinoxalinyl)-1H-imidazol-2-yl)-2-azabicyclo[3.1.0]hex-2-yl)-2-oxo-1-(tetrahydro-2H-pyran-4-yl)ethyl)carbamate] | 1.01 to 1000 nM | 1.81 nM |
| COC(=O)N[C@H](C(=O)N[C@H](c1nc(-c2ccc(-c3ccc4cc(-c5c[nH]c([C@@H](NC(=O)[C@@H](NC(=O)OC)C(C)C)C(C)(C)C)n5)ccc4c3)cc2)c[nH]1)C(C)(C)C)C(C)C [Example 149, methyl ((1S)-1-(((1S)-1-(4-(4-(6-(2-((1S)-1-(((2S)-2-((methoxycarbonyl)amino)-3-methylbutanoyl)amino)-2,2-dimethylpropyl)-1H-imidazol-4-yl)-2-naphthyl)phenyl)-1H-imidazol-2-yl)-2,2-dimethylpropyl)carbamoyl)-2-methylpropyl)carbamate] | 0.0101 to 1 nM | – |
| COC(=O)N[C@@H](C(=O)N[C@H](c1nc(-c2ccc3cc(-c4ccc(-c5cnc([C@@H](NC(=O)[C@H](NC(=O)OC)C(C)C)C(C)(C)C)[nH]5)cc4)ccc3c2)c[nH]1)C(C)(C)C)C(C)C [Example 148, Methyl ((1R)-1-(((1S)-1-(4-(4-(6-(2-((1S)-1-(((2R)-2-((methoxycarbonyl)amino)-3-methylbutanoyl)amino)-2,2-dimethylpropyl)-1H-imidazol-4-yl)-2-naphthyl)phenyl)-1H-imidazol-2-yl)-2,2-dimethylpropyl)carbamoyl)-2-methylpropyl)carbamate] | 1.01 to 1000 nM | 8.43 nM |
| COC(=O)N[C@H](C(=O)N1[C@@H]2C[C@@H]2C[C@H]1c1ncc(-c2ccc3nc(-c4ccc5nc([C@@H]6C[C@H]7C[C@H]7N6C(=O)[C@@H](NC(=O)OC)C(C)C)[nH]c5c4)cnc3c2)[nH]1)C(C)C [Example 52, Methyl ((1S)-1-(((1R,3S,5R)-3-(4-(2-(2-((1R,3S,5R)-2-((2S)-2-((methoxycarbonyl)amino)-3-methylbutanoyl)-2-azabicyclo[3.1.0]hex-3-yl)-1H-benzimidazol-5-yl)-6-quinoxalinyl)-1H-imidazol-2-yl)-2-azabicyclo[3.1.0]hex-2-yl)carbonyl)-2-methylpropyl)carbamate] | – | 0.0059 nM |
